The nature of this data set: cn = amount concentration of the nth substance listed, in mol/dm3. To be noted: 298.2 K, 101 kPa, Liquid, Pycnometric method.

For five compounds, mass density results are on record in the NIST ThermoML archive (doi:10.1021/acs.jced.5b00355).

As a reminder, the mass density is mass per unit of volume.

SMILES strings stand for the structures. ± gives the expanded uncertainty stated by the source.

In the case of `Nc1nnc(-c2cccc(Cl)c2Cl)c(N)n1` [lamotrigine] + CC(C)=O, the mass density (c1 = 0.0167) is given as 852.8 ± 6.9 kg/m3.

`Nc1nnc(-c2cccc(Cl)c2Cl)c(N)n1` [lamotrigine] + CCCO: the mass density (c1 = 0.0245) is reported as 893.8 ± 7.2 kg/m3. Regarding `Nc1nnc(-c2cccc(Cl)c2Cl)c(N)n1` [lamotrigine] + CCO, the mass density (c1 = 0.0134) came out at 851.7 ± 6.8 kg/m3. In the case of `Nc1nnc(-c2cccc(Cl)c2Cl)c(N)n1` [lamotrigine] + CCOC(C)=O, the mass density (c1 = 0.0106) is 995.4 ± 8 kg/m3.

As for `Nc1nnc(-c2cccc(Cl)c2Cl)c(N)n1` [lamotrigine] + CO, for the setting “c1 = 0.0199”, the mass density was found to be 834.7 ± 6.7 kg/m3.
